{
  "source": "PubChem BioAssay AID651557",
  "about": "(The Scripps Research Institute Molecular Screening Center, 2012)",
  "note": "pIC50: −log10 of the molar value. The source made the active and inactive calls.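 How the source made its calls: active means IC50 half-maximal inhibitory concentration at most 10 µM; inactive means IC50 above 10 µM.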",
  "data": [
    {"target": "Melanocortin receptor 4 (Homo sapiens) (UniProt P32245)", "sequence (P32245 whole entry, looked up)": "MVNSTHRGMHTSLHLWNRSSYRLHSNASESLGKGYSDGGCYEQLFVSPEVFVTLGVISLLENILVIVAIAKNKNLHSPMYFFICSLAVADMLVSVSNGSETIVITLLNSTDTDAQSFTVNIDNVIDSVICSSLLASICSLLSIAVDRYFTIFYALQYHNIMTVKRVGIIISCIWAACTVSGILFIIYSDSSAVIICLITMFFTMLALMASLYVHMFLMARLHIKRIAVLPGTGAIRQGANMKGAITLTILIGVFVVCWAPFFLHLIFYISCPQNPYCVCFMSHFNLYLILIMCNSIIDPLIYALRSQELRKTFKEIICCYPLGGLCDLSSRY", "experiment": "MC4R antagonists blocking beta-arrestin recruitment, late-stage follow-up, luminescence, biased ligand project, U2OS cells (AID 651557)", "settings": "beta-gal complementation luminescence", "values": [
      {"smiles": "CC(=O)c1ccc(Nc2nc3ccc(C(=O)N(CCC(C)C)CCC(C)C)cc3n2CCCN2CCCCC2)cc1", "pIC50": 8.63},
      {"smiles": "Cc1ccccc1CN1Cc2cnnn2-c2ccccc2C1C#N", "note": "(configuration not stated)", "IC50": "inactive"},
      {"smiles": "CCC1CCCCN1S(=O)(=O)c1ccc(NC(=O)c2ccccc2)cc1", "note": "(configuration not stated)", "IC50": "> 50 µM (inactive)"},
      {"smiles": "O=C1c2cccc3cccc(c23)C(=O)N1CC1CCN(CC(O)COc2ccc3ccccc3c2)CC1", "note": "(configuration not stated)", "IC50": "> 50 µM (inactive)"},
      {"smiles": "CC1CCCCN1S(=O)(=O)c1ccc(NC(=O)c2nc(S(C)(=O)=O)ncc2Cl)cc1", "note": "(configuration not stated)", "pIC50": 5.45},
      {"smiles": "COc1ccccc1C1(CCNC(C)c2cccs2)CCOC(C(C)C)C1", "note": "(configuration not stated)", "pIC50": 5.17},
      {"smiles": "CNC(=O)c1cc(Oc2ccc(NC(=O)CNc3ccc(Cl)c(C(F)(F)F)c3)cc2)ccn1", "IC50": "> 50 µM (inactive)"},
      {"smiles": "COc1ccc(N(C(C)=O)C(C(=O)NC2CCCC2)c2cccs2)cc1OC", "note": "(configuration not stated)", "IC50": "> 50 µM (inactive)"},
      {"smiles": "C#CC(=O)N(c1ccc(OC)c(OC)c1)C(C(=O)NC1CCCC1)c1cccs1", "note": "(configuration not stated)", "IC50": "inactive"},
      {"smiles": "CCC1CCCCN1S(=O)(=O)c1ccc(NC(=O)c2ccnc(SC)n2)cc1", "note": "(configuration not stated)", "IC50": "> 50 µM (inactive)"},
      {"smiles": "CNC(=O)c1cc(Oc2ccc(NCC(=O)Nc3ccc(Cl)c(C(F)(F)F)c3)cc2)ccn1", "IC50": "> 50 µM (inactive)"},
      {"smiles": "CCC1CCCCN1S(=O)(=O)c1ccc(NC(=O)c2cccc(S(C)(=O)=O)c2)cc1", "note": "(configuration not stated)", "IC50": "> 50 µM (inactive)"}
    ]}
  ]
}
